Tests used:
[1] = system: HIV-1 protease 2Mut (V82F, I84V); test: Enzyme inhibition; assay type: biochemical; details: primary active site mutations (2 mutations); abstract
[2] = molecular target: HIV-1 protease 9Mut-A71V (Human immunodeficiency virus type 1 group M subtype B, UniProt P12497, A559V/G504E/I501V/I572V/K533I/L521F/M534I/Q495K/V520I/V570F); details: relative to 8Mut; ΔG = RTln[Ki]
[3] = molecular target: HIV-1 protease 9Mut-L76V (Human immunodeficiency virus type 1 group M subtype B, UniProt P12497, G504E/I501V/I572V/K533I/L521F/L564V/M534I/Q495K/V520I/V570F); details: relative to 8Mut; ΔG = RTln[Ki]
[4] = molecular target: HIV-1 protease 10Mut (Human immunodeficiency virus type 1 group M subtype B, UniProt P12497, A559V/G504E/I501V/I572V/K533I/L521F/L564V/M534I/Q495K/V520I/V570F); details: relative to 8Mut; ΔG = RTln[Ki]
[5] = molecular target: HIV-1 protease 11Mut (Human immunodeficiency virus type 1 group M subtype B, UniProt P12497, A559V/G504E/I501V/I542L/I572V/K533I/L521F/L564V/M534I/Q495K/V520I/V570F); details: 11Mut vs WT

## CC(C)CN(C[C@@H](O)[C@H](Cc1ccccc1)NC(=O)O[C@H]1CO[C@H]2OCC[C@H]21)S(=O)(=O)c1ccc(N)cc1 [DRV, Darunavir]
[1]
  loss in potency: ~ 50 fold
[2]
  ΔΔG9Mut-A71V (change in free energy of inhibitor binding): 0.35 ± 0.07 kcal/mol
[3]
  ΔΔG9Mut-L76V (change in free energy of inhibitor binding): 1.55 ± 0.10 kcal/mol
[4]
  ΔΔG10Mut (change in free energy of inhibitor binding): 1.45 ± 0.05 kcal/mol
[5]
  decrease in inhibition compared to WT: 152,000 fold
